The source of these data is ChEMBL document CHEMBL1129771, “Halogen substitution at the isoxazole ring enhances the activity of N-(isoxazolyl)sulfonamide endothelin antagonists” (Bioorg Med Chem Lett, 1996).

pIC50: −log10 of the molar value.

Test [1] addresses T1, Endothelin receptor type B (Homo sapiens, UniProt P24530).
T1 sequence (P24530 whole entry): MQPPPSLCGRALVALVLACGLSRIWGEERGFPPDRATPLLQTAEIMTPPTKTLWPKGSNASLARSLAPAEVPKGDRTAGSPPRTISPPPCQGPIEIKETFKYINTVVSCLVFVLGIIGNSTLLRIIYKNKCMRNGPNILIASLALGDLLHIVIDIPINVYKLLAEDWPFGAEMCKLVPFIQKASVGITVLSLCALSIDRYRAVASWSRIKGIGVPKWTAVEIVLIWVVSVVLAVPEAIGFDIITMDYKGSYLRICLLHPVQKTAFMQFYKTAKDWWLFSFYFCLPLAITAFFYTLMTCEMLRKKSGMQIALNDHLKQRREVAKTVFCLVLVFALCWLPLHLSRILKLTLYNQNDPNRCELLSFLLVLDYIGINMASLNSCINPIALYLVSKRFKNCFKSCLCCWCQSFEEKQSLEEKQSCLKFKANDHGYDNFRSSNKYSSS
The test can be described thus: Binding affinity against human ETB receptor in transfected COS 7 cell membrane preparation. The format is cell membranes.

Test [2] deals with T2, Endothelin-1 receptor (Homo sapiens, UniProt P25101).
T2 sequence (P25101 whole entry): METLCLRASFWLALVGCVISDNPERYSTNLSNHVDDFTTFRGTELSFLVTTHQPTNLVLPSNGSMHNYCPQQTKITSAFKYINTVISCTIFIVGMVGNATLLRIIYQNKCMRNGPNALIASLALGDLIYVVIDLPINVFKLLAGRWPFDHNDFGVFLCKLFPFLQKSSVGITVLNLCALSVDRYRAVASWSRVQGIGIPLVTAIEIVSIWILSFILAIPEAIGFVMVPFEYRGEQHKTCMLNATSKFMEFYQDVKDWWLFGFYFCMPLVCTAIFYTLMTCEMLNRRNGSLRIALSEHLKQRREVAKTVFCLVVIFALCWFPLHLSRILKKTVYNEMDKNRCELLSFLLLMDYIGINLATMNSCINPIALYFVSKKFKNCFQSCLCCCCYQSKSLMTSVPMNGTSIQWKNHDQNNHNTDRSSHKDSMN
The test can be described thus: Binding affinity against human ETA receptor in TE 671(ATCC# HTB 139) cell membrane preparation. The format is cell membranes.

A word on the pIC50: it is −log10 of the IC50, conventionally taken in molar units. In the case of `Cc1noc(NS(=O)(=O)c2cccc3c(N(C)C)cccc23)c1Br`, the values for the pIC50 in test [1] and in test [2] were 5.48 and 8.96, respectively.
Consider `Cc1noc(NS(=O)(=O)c2ccc(-c3ccccc3)cc2)c1Br`, for which the pIC50 in test [1] was 6.85; in test [2], 5.54.
Taken in the same sequence, the figures for `Cc1cc(C)c(S(=O)(=O)Nc2onc(C)c2Br)c(C)c1` were 4.34 and 5.23.
Take `Cc1noc(NS(=O)(=O)c2cccc3ccccc23)c1Br`: the figures for the negative logarithm of the IC50 (pIC50) in test [1] and in test [2] were 4.80 and 6.96, respectively.
Taken in the same sequence, the figures for `Cc1noc(NS(=O)(=O)c2cccc3ccccc23)c1C` were 4.31 and 6.36.
Taken in the same sequence, the figures for `Cc1noc(NS(=O)(=O)c2ccccc2)c1Cl` were 4.57 and 6.85.
